Columns and labels:
Leishmania infantum [1] = assay: Antileishmanial activity against amastigote stage of Leishmania infantum infected in PMA-differentiated human THP-1 cells after 3 days by luciferase assay; assay type: functional, organism-based; conditions: THP-1, 72 h
[2] = biological target: T1, Putative silent information regulator 2 (Leishmania infantum, UniProt A0A6L0XH39); assay: Inhibition of N-terminal His6-tagged recombinant Leishmania infantum SIR2RP1 expressed in Escherichia coli in presence of NAD+ by fluorimetric method
T1 sequence (A0A6L0XH39 whole entry): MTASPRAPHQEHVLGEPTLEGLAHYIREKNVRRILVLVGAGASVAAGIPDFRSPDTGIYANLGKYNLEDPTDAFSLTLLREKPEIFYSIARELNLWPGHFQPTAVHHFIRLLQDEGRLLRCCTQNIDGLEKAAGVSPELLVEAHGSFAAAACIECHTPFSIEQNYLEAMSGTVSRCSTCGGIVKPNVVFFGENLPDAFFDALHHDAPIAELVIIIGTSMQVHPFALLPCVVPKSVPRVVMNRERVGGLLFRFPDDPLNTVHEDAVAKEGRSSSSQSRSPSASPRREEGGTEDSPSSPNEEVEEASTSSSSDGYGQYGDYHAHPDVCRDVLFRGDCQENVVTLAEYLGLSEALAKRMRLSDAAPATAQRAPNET

Toxoplasma gondii = assay: Antiparasitic activity against tachyzoite stage of Toxoplasma gondii; assay type: functional, organism-based
Plasmodium falciparum [3] = assay: Antimalarial activity against Plasmodium falciparum infected in human erythrocytes preincubated for 48 hrs followed by [3H]-hypoxanthine addition measured after 24 hrs by scintillation counting assay; assay type: functional, organism-based
Schistosoma mansoni [4] = assay: Antiparasitic activity against Schistosoma mansoni assessed as pairing at 20 uM after 6 days relative to control; assay type: functional
Schistosoma mansoni [5] = assay: Antiparasitic activity against Schistosoma mansoni assessed as cumulative egg reduction at 20 uM; assay type: functional; design: scale not given: the % may be the effect or the level left
Schistosoma mansoni [6] = assay: Antiparasitic activity against Schistosoma mansoni assessed cell viability at 20 uM after 5 days; assay type: functional
Plasmodium falciparum [7] = assay: Antimalarial activity against Plasmodium falciparum; assay type: functional, organism-based
Plasmodium falciparum [8] = assay: Antiplasmodial activity against Plasmodium falciparum 3D7 assessed as growth inhibition after 24 hrs by measuring incorporation of [3H]-hypoxanthine by liquid scintillation counting method; assay type: functional, organism-based
[9] = Inhibition of Plasmodium falciparum Sir2A
Leishmania infantum [10] = assay: Antileishmanial activity against amastigote stage of Leishmania infantum MHOM/MA671TMAP263 expressing luciferase after 72 hrs by luciferase assay; assay type: functional, organism-based; conditions: MHOM/MA671TMAP263, 72 h
Trypanosoma cruzi = assay: Antitrypanosomal activity against epimastigotes of Trypanosoma cruzi […] by Alamar Blue assay; assay type: functional, organism-based

SMILES	IC50 (Leishmania infantum [1])	IC50 [2]	other results
O=C1c2cccc3cccc(c23)C(=O)N1CCNCCCNCCCNCCN1C(=O)c2cccc3cccc(c23)C1=O	1 to 10 µM	5.7 to 54.7 µM	
O=C(CCCCCN1C(=O)c2cccc3cccc(c23)C1=O)NO			IC50 (Toxoplasma gondii): 0.039 µM
O=C1c2cccc3cccc(c23)C(=O)N1CCNCCCNCCCCNCCCNCCN1C(=O)c2cccc3cccc(c23)C1=O	1 to 10 µM	5.7 to 54.7 µM	
O=C1c2cccc3cccc(c23)C(=O)N1CCNCCNCCNCCN1C(=O)c2cccc3cccc(c23)C1=O	1 to 10 µM	5.7 to 54.7 µM	
O=C(/C=C/c1ccc(C(=O)NO)cc1)NO			IC50 (Plasmodium falciparum [3]): 0.9 to 1.1 µM
O=C(CCCCCCC(=O)NO)NO [SUBEROHYDROXAMIC ACID]			IC50 (Plasmodium falciparum [3]): 0.8 to 2.3 µM; IC50 (Toxoplasma gondii): 0.213 µM
O=C1c2cccc3cccc(c23)C(=O)N1CCNCCCCCCCCCNCCN1C(=O)c2cccc3cccc(c23)C1=O	1 to 10 µM	5.7 to 54.7 µM	
O=C1c2cccc3cccc(c23)C(=O)N1CCNCCCCCCCNCCN1C(=O)c2cccc3cccc(c23)C1=O	1 to 10 µM	5.7 to 54.7 µM	
O=C1NC(=S)NC(=O)C1=Cc1cc2ccccc2[nH]1			Activity (Schistosoma mansoni [4]): 100%; Activity (Schistosoma mansoni [5]): 65%; Activity (Schistosoma mansoni [6]): 100%
Oc1ccc(/C=C/c2cc(O)cc(O)c2)cc1 [RESVERATROL]			IC50 (Plasmodium falciparum [7]): 60 µM
O=C1c2cccc3cccc(c23)C(=O)N1CCNCCCCCCCCNCCN1C(=O)c2cccc3cccc(c23)C1=O	1 to 10 µM	5.7 to 54.7 µM	
O=C1c2cccc3cccc(c23)C(=O)N1CCNCCCCCCCCCCNCCN1C(=O)c2cccc3cccc(c23)C1=O	1 to 10 µM	5.7 to 54.7 µM	
CCCC(CCC)C(=O)O [VALPROIC ACID]			IC50 (Plasmodium falciparum [7]): > 100 µM
O=C1CCc2c(ccc3ccccc23)O1 [SPLITOMICIN]			IC50 (Plasmodium falciparum [8]): > 10 µM; IC50 [9]: > 400 µM
O=C1c2cccc3cccc(c23)C(=O)N1CCNCCCCCNCCN1C(=O)c2cccc3cccc(c23)C1=O	1 to 10 µM	5.7 to 54.7 µM	
NC(=O)c1cccnc1 [NIACINAMIDE]		40 µM	IC50 (Plasmodium falciparum [8]): 9900 µM; IC50 (Leishmania infantum [10]): 5500 to 13900 µM; EC50 (Trypanosoma cruzi): 25800 µM; IC50 [9]: 51 µM
O=C1c2cccc3cccc(c23)C(=O)N1CCNCCCCCCCCCCCCNCCN1C(=O)c2cccc3cccc(c23)C1=O	1 to 10 µM	5.7 to 54.7 µM	
O=C1c2cccc3cccc(c23)C(=O)N1CCNCCCCNCCCNCCN1C(=O)c2cccc3cccc(c23)C1=O	1 to 10 µM	5.7 to 54.7 µM	
Cc1ccc(C(=O)Nc2ccc(S(=O)(=O)O)c3cc(S(=O)(=O)O)cc(S(=O)(=O)O)c23)cc1NC(=O)c1cccc(NC(=O)Nc2cccc(C(=O)Nc3cc(C(=O)Nc4ccc(S(=O)(=O)O)c5cc(S(=O)(=O)O)cc(S(=O)(=O)O)c45)ccc3C)c2)c1 [SURAMIN]		7 µM	
O=C1c2cccc3cccc(c23)C(=O)N1CCNCCCCCCNCCN1C(=O)c2cccc3cccc(c23)C1=O	1 to 10 µM	5.7 to 54.7 µM	
O=C1c2cccc3cccc(c23)C(=O)N1CCNCCCCNCCN1C(=O)c2cccc3cccc(c23)C1=O	1 to 10 µM	5.7 to 54.7 µM	

— ChEMBL document CHEMBL4184137, “Lysine Deacetylase Inhibitors in Parasites: Past, Present, and Future Perspectives” (J Med Chem, 2017)
